Here are results for 89 compounds from the COVID Moonshot data (paper PMC7615835).

Where “and” joins values, the source holds several entries; their conditions need not be identical. Identical values can stand only once.

The IC50 is the concentration that gives 50% inhibition.

This assay has as its target SARS-CoV-2 Main Protease (SARS-CoV-2) (UniProt P0DTD1).
Turning to `O=C(COCC(=O)N1CCCC1)NC(C(=O)Nc1cncc2ccccc12)c1cccc(Cl)c1` (centres undefined), the IC50 is 6.35 µM and 8.47 µM.
`Cc1ccncc1NC(=O)Cc1cc(Cl)cc(-c2cnn(C)c2C(F)F)c1` displayed an IC50 of 19.3 µM.
For the compound `Cc1c(Cl)ccc2c1[C@H](C(=O)Nc1cncc3ccccc13)CCO2` (stereo in doubt), the 50% inhibitory concentration (IC50) was 3.67 µM. This IC50 lies about 5.3-fold lower than the previous one.
For `O=C(Nc1cccc2c[nH]nc12)C1CCOc2ccc(Cl)cc21` (centres undefined) the value was more than 99.5 µM; for `Cn1ncc(S(=O)(=O)N2Cc3ccc(Cl)cc3C(C(=O)Nc3cncc4ccccc34)C2)n1` (centres undefined), 0.268 µM; for `Nc1ccc2c(c1)C(=O)N(c1cc(Cl)cc(CC(=O)Nc3cncc4ccccc34)c1)C2=O`, 1.86 µM.
For `O=C(Nc1cncc2c1CNCC2)C1CCOc2ccc(Cl)cc21` (centres undefined) the value was 6.16 µM; for `O=C(Cc1cc(Cl)cc(Nc2cccc(C(F)(F)F)n2)c1)Nc1cncc2ccccc12`, 2.13 µM.
For `COc1ccccc1OC(C)CNC(=O)c1cc(=O)[nH]c2cc(F)ccc12` (centres undefined) the value was more than 99.5 µM; for `CC(C)(C)c1cnc(N(C(=O)c2cocn2)C(C(=O)NCCc2cccc(F)c2)c2cccnc2)o1` (centres undefined), 32.4 µM.
Compound `CN(C)c1ccc(N(Cc2cccc(Cl)c2)C(=O)Cn2nnc3ccccc32)cc1` gave a 50% inhibitory concentration (IC50) of 0.497 µM.
Compound `O=C(Cc1cc(Cl)cc(Nc2ccccc2OCC(F)(F)F)c1)Nc1cncc2ccccc12` came in with an IC50 of 1.96 µM. This IC50 is about 3.9-fold higher than that of the compound before.
With `N#CC1(CS(=O)(=O)N2Cc3ccc(Cl)cc3C3(CCN(c4cncc5ccccc45)C3=O)C2)CCCC1` (centres undefined) the figure was 0.244 µM.
On to `Cc1ncc(CN2CC(C(=O)Nc3cncc4cc(S(C)(=O)=O)ccc34)c3cc(Cl)ccc3C2=O)[nH]1` (centres undefined), for which the IC50 was determined as 0.226 µM.
With `O=C1CCCN(S(=O)(=O)c2cccc(F)c2)CC1` the figure was more than 99.5 µM.
For `N#Cc1cc(F)c(Nc2cc(Cl)cc(CC(=O)Nc3cncc4ccccc34)c2)cc1F` the value was 2.12 µM.
With `O=C(NCCc1cccc(F)c1)C(c1cccnc1)N(C(=O)c1cnc[nH]1)C1CCN(c2ccccc2F)C1` (centres undefined) the figure was more than 99 µM; with `O=C(Cc1cc(Cl)cc(N2CCN(c3ccccc3[N+](=O)[O-])CC2)c1)Nc1cncc2ccccc12`, 4.01 µM.
With `N#Cc1cccc(C2CN(C(=O)CCl)Cc3ccccc32)c1` (centres undefined), the IC50 amounted to 1.17 µM.
As for `O=C(Cc1cncc2ccccc12)Nc1cc(Cl)cc(OC2CCC(=O)N2)c1` (centres undefined), the half-inhibitory concentration (IC50) turned out to be 38.4 µM. Compared with the last compound, the IC50 is about 33-fold higher.
For `CC(C)(C)c1ccc(N(C(=O)c2ccco2)C(C(=O)NCCc2cccc(F)c2)c2[nH]nc3ccccc23)cc1` (centres undefined) the value was more than 99.5 µM; for `O=C(Cc1cc(Cl)cc(OC2CCC(=O)N2)c1)Nc1cncc2ccccc12` (centres undefined), 85.9 µM.
On to `CN(C)CCOc1ccc2cncc(NC(=O)C3CN(S(=O)(=O)CC4(C#N)CC4)Cc4ccc(Cl)cc43)c2c1` (centres undefined), for which the IC50 is 0.117 µM.
For `Cc1ccccc1C(C)NC(C)C(=O)Nc1ccc2[nH]c(=O)[nH]c2c1` (centres undefined) the value was more than 99.5 µM.
For `Cc1ccc(S(=O)(=O)NC2CCN(C(=O)CCl)CC2)cc1` the value was 33.5 µM.
`CC(C(N)=O)c1cc(Cl)cc(CC(=O)Nc2cncc3ccccc23)c1` (centres undefined) yielded a 50% inhibitory concentration (IC50) of 2.62 µM. Compared with the last compound, the IC50 is about 13-fold lower.
For `Cn1c(=O)[nH]c(=O)c2ccc(C(=O)N(c3ccc(C(C)(C)C)cc3)C(C(=O)NCCc3cccc(F)c3)c3cccnc3)nc21` (centres undefined) the value was more than 99.5 µM; for `CN(Cc1cccc([N+](=O)[O-])c1)c1cc(Cl)cc(CC(=O)Nc2cncc3ccccc23)c1`, 1.53 µM; for `Cc1ccn2c(NC(=O)Cc3cccc(Cl)c3)cnc2c1`, 19.6 µM.
With `CC(C)(C)c1ccc(N(C(=O)c2c[nH]c(=O)cn2)C(C(=O)NCCc2cccc(F)c2)c2cccnc2)cc1` (centres undefined) the figure was 77.1 µM; with `Cc1cn2c(CNC(=O)c3cnn4ccccc34)c(C)nc2s1`, more than 99.5 µM; with `O=C(NCCc1cccc(F)c1)C(c1cccnc1)N(Cc1cccnc1)C(=O)c1cnc[nH]1` (centres undefined), more than 99 µM.
Turning to `COc1ccc2cncc(NC(=O)C3CCOc4cc(F)c(Cl)cc43)c2c1` (centres undefined), the IC50 is 0.101 µM and 0.114 µM.
Regarding `Cc1ccncc1NC(=O)Cc1cc(Cl)cc(CNS(C)(=O)=O)c1`, the 50% inhibitory concentration (IC50) stood at 16.6 µM.
For `CCCCOc1ccc(Cl)cc1CC(=O)Nc1cnccc1C` the value was 24.8 µM.
As to `CCCNC(=O)CN1CC(C(=O)Nc2cncc3cc(S(C)(=O)=O)ccc23)c2cc(Cl)ccc2C1=O` (centres undefined), the half-maximal inhibitory concentration (IC50) is 0.127 µM and 0.209 µM.
`Cc1ccc(S(=O)(=O)CNC(=O)C(c2cccnc2)N(C(=O)c2cocn2)c2ccc(C(C)(C)C)cc2)cc1` (centres undefined): the half-inhibitory concentration (IC50) came to 62.9 µM.
For `O=C(Cc1cccc(Cl)c1)Nc1noc2ncccc12` the value was more than 99.5 µM.
For `Cc1cc(N2CCC(C)N(Cc3ccccc3)CC2)n2ncnc2n1` (centres undefined) the value was more than 99.5 µM; for `O=C(Cc1cccc(Cl)c1)N1Cc2ccccc2C(O)C1` (centres undefined), 14.8 µM.
The compound `O=C(NCCc1cccc(F)c1)C(c1cccnc1)N(C(=O)c1cocn1)c1ccc(N2CCCS2(=O)=O)cc1` (centres undefined) registered a half-inhibitory concentration (IC50) of 27.8 µM.
For `O=C1N(c2cncc3ccccc23)CCC12CN(Cc1nncs1)Cc1ccc(Cl)cc12` (centres undefined) the value was 0.263 µM; for `O=C(Cc1cccc(Cl)c1)Nc1cncc2ccc(OCCN3CCCC3)cc12`, 1.13 µM.
For `O=C(NCCc1nnc2n1CCC2)c1cc(O)nc2ccccc12` the value was more than 99.5 µM; for `Cc1ccc2cccc(Nc3cc(Cl)cc(CC(=O)Nc4cncc5ccccc45)c3)c2n1`, 4.93 µM.
Turning to `O=C(Nc1ccc2c(=O)cc[nH]c2c1)c1ccc2ccncc2c1`, the IC50 is more than 99.5 µM.
For `O=C(Cc1cc(Cl)cc(Nc2ccc(Oc3ccc(Cl)cc3)cc2)c1)Nc1cncc2ccccc12` the value was 2.44 µM; for `Cc1cc(Br)c(Cl)cc1Nc1cc(Cl)cc(CC(=O)Nc2cncc3ccccc23)c1`, 2.02 µM.
Consider `COC1(CS(=O)(=O)N2Cc3ccc(Cl)cc3C(C(=O)Nc3cncc4ccc(C(C)(C)O)cc34)C2)CC1` (centres undefined), for which the half-inhibitory concentration (IC50) is 1.77 µM.
For `CS(=O)(=O)Nc1ccc2cncc(NC(=O)C3CNC(=O)c4ccc(Cl)cc43)c2c1` (centres undefined) the value was 0.195 µM; for `O=C(Nc1cncc2ccccc12)C1(CO)CCOc2ccc(Cl)cc21` (centres undefined), 1.09 µM; for `C=CS(=O)(=O)N1CCN(S(=O)(=O)c2ccccc2)CC1`, more than 99.5 µM.
With `Cc1ccc(CC(=O)Nc2cncc3ccccc23)cc1` the figure was 58.4 µM; with `O=C1C(=O)N(Cc2ccccc2)c2ccc([N+](=O)[O-])cc21`, more than 99.5 µM.
In turn, `O=C(O)CCc1cc2c(cc1S(=O)(=O)N1CCN(c3ccccc3)CC1)OCO2` yielded an IC50 of more than 99.5 µM.
In turn, `NC(=O)C1Cc2ccccc2CN1CC(=O)N1CCN(c2ncccn2)CC1` (centres undefined) came in with a half-inhibitory concentration (IC50) of more than 99.5 µM.
Regarding `CC(C)(C)NC(=O)CN1CC(C(=O)Nc2cncc3ccccc23)c2cc(Cl)ccc2C1=O` (centres undefined), the IC50 amounted to 0.523 µM. In other words, the sub-micromolar range.
For `CC1C(=O)NCCN1C(=O)CCCc1c[nH]c2ccccc12` (centres undefined) the value was more than 99.5 µM; for `COc1cc2cncc(NC(=O)Cc3cccc(Cl)c3)c2cc1F`, more than 99.5 µM.
For `Cc1c(C(=O)N2CCC(C3CCNC3)CC2)cccc1-c1ccccn1` (centres undefined) the value was more than 99.5 µM.
`O=C1CCCN(S(=O)(=O)c2cccs2)CC1` registered an IC50 of more than 99.5 µM.
For `O=C(Nn1nnc2ccccc21)C(Cc1cccc(Cl)c1)c1ccc(N2CCCCC2=O)cc1` (centres undefined) the value was 50.9 µM; for `O=C(CCl)Nc1cccc(N2CCCC2=O)c1`, 72 µM and 68.7 µM; for `O=C(Nc1n[nH]c2ccncc12)C1CCOc2ccc(Cl)cc21` (centres undefined), 70.3 µM.
For `COc1ccc2ncc(NC(=O)Cc3cccc(Cl)c3)n2c1`, the half-maximal inhibitory concentration (IC50) was 15.9 µM.
`O=[N+]([O-])c1cnc(Sc2nnc(-c3ccco3)n2-c2ccc(OCc3ccccc3)cc2)s1`: the IC50 is 7.3 µM.
For `O=C(COC(=O)C1(c2ccccc2)CCC1)c1c[nH]c2ccccc12` the value was more than 99.5 µM.
With `O=C(Nc1cncc2ccccc12)C1CN(Cc2nnc[nH]2)Cc2ccc(Cl)cc21` (centres undefined) the figure was 0.784 µM; with `O=C(Cc1cc(Cl)cc(N2CCN(c3ncccn3)CC2)c1)Nc1cncc2ccccc12`, 2.52 µM.
`O=C(Nc1cc[nH]c(=O)c1)C1CCOc2ccc(Cl)cc21` (centres undefined) returned an IC50 of more than 99.5 µM.
For `O=C(c1cccc(N2CCCNC2=O)c1)N1CCC(C2CCNC2)CC1` (centres undefined), the IC50 is more than 99.5 µM.
For `O=C(Cc1cccc(Cl)c1)Nc1c(O)cnc2ccccc12` the value was 8.44 µM; for `O=C(Cc1cc(Cl)cc(N2CCN(C(=O)[C@@H]3COc4ccccc4O3)CC2)c1)Nc1cncc2ccccc12` (stereo in doubt), 2.74 µM.
For `CCNc1ncc(C#N)cc1CN1CCN(C(=O)CCl)CC1` the value was 3.22 µM; for `C=CC(=O)N1CCN(S(=O)(=O)c2cccs2)CC1`, more than 99.5 µM.
With `Cc1cnc(Nc2cc(Cl)cc(CC(=O)Nc3cncc4ccccc34)c2)c([N+](=O)[O-])c1` the figure was 1.86 µM; with `O=C(Cc1cc(Cl)cc(Nc2nnc(C(F)(F)F)s2)c1)Nc1cncc2ccccc12`, 2.44 µM.
The compound `CC(C)(c1ccc(N(C(=O)c2cocn2)C(C(=O)NCCc2cccc(F)c2)c2cccnc2)cc1)S(C)(=O)=O` (centres undefined) showed an IC50 of 67.8 µM.
Regarding `CC(C(=O)Nc1cccc2nccnc12)n1cnc2c(N)ncnc21` (centres undefined), the concentration for half-maximal inhibition (IC50) was more than 99.5 µM.
With `O=C(Cc1cc(Cl)cc(N2CCN(c3cccc([N+](=O)[O-])c3)CC2)c1)Nc1cncc2ccccc12` the figure was 2.87 µM.
With `C=CC(=O)N(c1ccc(C(F)(F)F)cc1)C(C(=O)NCCc1cccc(F)c1)c1cccnc1` (centres undefined) the figure was 20.1 µM.
For `O=C(Nc1cncc2ccccc12)N1CCOc2ccc(Cl)cc21` the value was 11.4 µM; for `COc1cc(CNc2cc(Cl)cc(CC(=O)Nc3cncc4ccccc34)c2)cc(OC)c1`, 2.87 µM; for `O=C(Cn1nnc2ccccc21)N(Cc1ccccn1)c1cnc(-c2ccccc2)nc1`, more than 99.5 µM.
`O=C(CCl)N1CCN(S(=O)(=O)c2ccsc2)[C@H](C(=O)N2CCN(c3ccccc3)CC2)C1` (stereo in doubt) returned an IC50 of 1.98 µM.
With `C[C@H]1CN(C(=O)OC(C)(C)C)CCN1c1cc(Cl)cc(CC(=O)Nc2cncc3ccccc23)c1` (stereo in doubt) the figure was 2.19 µM; with `COc1ccc(CC(=O)Nc2cncc3ccccc23)cc1`, 72.5 µM; with `CS(=O)(=O)Nc1ccc(Cl)cc1C(=O)N1CCC(C2CCNC2)CC1` (centres undefined), more than 99.5 µM.
`N#CC1(CS(=O)(=O)N2Cc3ccc(Cl)cc3C3(CCN(c4cncc5ccc(C(F)F)cc45)C3=O)C2)CC1` (centres undefined) returned a half-inhibitory concentration (IC50) of 0.354 µM. That is a sub-micromolar value.
